Consider 31 substances from patent US10336809B2, “Peptides and combination of peptides for use in immunotherapy against various tumors” (immatics biotechnologies GmbH, priority 2015, dated 2019).

The test system of one experiment is CD8+ T cells. The experiment in a line: In vitro T-cell priming assay with aAPCs loaded with peptide/MHC complexes and anti-CD28 antibody, pMHC multimer readout. The experiment is classed as cell-based, human. To be noted: healthy HLA-A*02+ donors, positive donors. The text has this: In order to obtain information regarding the immunogenicity of the TUMAPs of the present invention, the inventors performed investigations using an in vitro T-cell priming assay based on repeated stimulations of CD8+ T cells with artificial antigen presenting cells (aAPCs) loaded with peptide/MHC complexes and anti-CD28 antibody.
In order to perform in vitro stimulations by artificial antigen presenting cells loaded with peptide-MHC complex (pMHC) and anti-CD28 antibody, the inventors first isolated CD8+ T cells from fresh HLA-A*02 leukapheresis products via positive selection using CD8 microbeads (Miltenyi Biotec, Bergisch-Gladbach, Germany) of healthy donors obtained from the University clinics Mannheim, Germany, after informed consent. PBMCs and isolated CD8+ lymphocytes were incubated in T-cell medium (TCM) until use consisting of RPMI-Glutamax (Invitrogen, Karlsruhe, Germany) supplemented with 10% heat inactivated human AB serum (PAN-Biotech, Aidenbach, Germany), 100 U/ml Penicillin/100 μg/ml Streptomycin (Cambrex, Cologne, Germany), 1 mM sodium pyruvate (CC Pro, Oberdorla, Germany), 20 μg/ml Gentamycin (Cambrex). 2.5 ng/ml IL-7 (PromoCell, Heidelberg, Germany) and 10 U/ml IL-2 (Novartis Pharma, Nürnberg, Germany) were also added to the TCM at this step. Generation of pMHC/anti-CD28 coated beads, T-cell stimulations and readout was performed in a highly defined in vitro system using four different pMHC molecules per stimulation condition and 8 different pMHC molecules per readout condition.
The purified co-stimulatory mouse IgG2a anti human CD28 Ab 9.3 (Jung et al., 1987) was chemically biotinylated using Sulfo-N-hydroxysuccinimidobiotin as recommended by the manufacturer (Perbio, Bonn, Germany). Beads used were 5.6 μm diameter streptavidin coated polystyrene particles (Bangs Laboratories, Illinois, USA).
pMHC used for positive and negative control stimulations were A*0201/MLA-001 (peptide […] (SEQ ID NO. 289) from modified Melan-A/MART-1) and A*0201/DDX5-001 ([…] from DDX5, SEQ ID NO. 290), respectively.
800.000 beads/200 μl were coated in 96-well plates in the presence of 4×12.5 ng different biotin-pMHC, washed and 600 ng biotin anti-CD28 were added subsequently in a volume of 200 μl. Stimulations were initiated in 96-well plates by co-incubating […] CD8+ T cells with 2×10^5 washed coated beads in 200 μl TCM supplemented with 5 ng/ml IL-12 (PromoCell) for 3 days at 37° C. Half of the medium was then exchanged by fresh TCM supplemented with 80 U/ml IL-2 and incubating was continued for 4 days at 37° C. This stimulation cycle was performed for a total of three times. For the pMHC multimer readout using 8 different pMHC molecules per condition, a two-dimensional combinatorial coding approach was used as previously described (Andersen et al., 2012) with minor modifications encompassing coupling to 5 different fluorochromes. Finally, multimeric analyses were performed by staining the cells with Live/dead near IR dye (Invitrogen, Karlsruhe, Germany), CD8-FITC antibody clone SK1 (BD, Heidelberg, Germany) and fluorescent pMHC multimers. For analysis, a BD LSRII SORP cytometer equipped with appropriate lasers and filters was used. Peptide specific cells were calculated as percentage of total CD8+ cells. Evaluation of multimeric analysis was done using the FlowJo software (Tree Star, Oregon, USA). In vitro priming of specific multimer+ CD8+ lymphocytes was detected by comparing to negative control stimulations.
Exemplary flow cytometry results after TUMAP-specific multimer staining for 2 peptides of the invention are shown in FIG. 3 together with corresponding negative controls.
Consider “287 (KIQEILTQV; listed as Homo sapiens) [compound 287]”, for which the “in vitro immunogenicity, donors” value was “+++ (50%-69% = +++)”. With “288 (SLYKGLLSV; listed as Homo sapiens) [compound 288]”, the “in vitro immunogenicity, donors” value is given as “++++ (>=70% = ++++)”.

The same experiment, now with this note: healthy HLA-A*02+ donors, positive wells.
Consider “287 (KIQEILTQV; listed as Homo sapiens) [compound 287]”, for which the “in vitro immunogenicity, wells” value was “+ (<20% = +)”.

Staying with this experiment, now noted: in vitro immunogenicity, HLA-A*02 restricted peptides, CD8+ T cells of healthy donors, pMHC multimer readout.
In the case of “4 (VLFGELPAL; listed as Homo sapiens) [compound 4]”, the “Wells positive [%]” value is on record as “+ (<20% = +)”. Same read-out and setting: the result for “9 (SLITGQDLLSV; listed as Homo sapiens) [compound 9]” reads “+ (<20% = +)”.

As to “14 (YTFSGDVQL; listed as Homo sapiens) [compound 14]”, the “Wells positive [%]” value is “+ (<20% = +)”. As for “17 (GLLPSAESIKL; listed as Homo sapiens) [compound 17]”, the “Wells positive [%]” value was “+ (<20% = +)”. With “27 (GLLGKVTSV; listed as Homo sapiens) [compound 27]”, the “Wells positive [%]” value is given as “+ (<20% = +)”.

With “29 (KMISAIPTL; listed as Homo sapiens) [compound 29]”, the “Wells positive [%]” value is “+ (<20% = +)”. As for “34 (TLNTLDINL; listed as Homo sapiens) [compound 34]”, the “Wells positive [%]” value is “++++ (>=70% = ++++)”. As to “35 (VIIKGLEEI; listed as Homo sapiens) [compound 35]”, the “Wells positive [%]” value is on record as “+ (<20% = +)”.

For “39 (YLEDGFAYV; listed as Homo sapiens) [compound 39]”, the “Wells positive [%]” value was “++++ (>=70% = ++++)”. Still for that read-out and setting: the same measure for “50 (ILLSVLHQL; listed as Homo sapiens) [compound 50]”: “+ (<20% = +)”; for “66 (AMFPDTIPRV; listed as Homo sapiens) [compound 66]”: “+ (<20% = +)”. Take “77 (ALYGNVQQV; listed as Homo sapiens) [compound 77]”: the “Wells positive [%]” value is on record as “+ (<20% = +)”. In the case of “89 (SLAETIFIV; listed as Homo sapiens) [compound 89]”, the “Wells positive [%]” value was “+ (<20% = +)”.

Regarding “97 (KLFEKSTGL; listed as Homo sapiens) [compound 97]”, the “Wells positive [%]” value is recorded as “+ (<20% = +)”. Regarding “101 (SLLEVNEASSV; listed as Homo sapiens) [compound 101]”, the “Wells positive [%]” value was “+ (<20% = +)”. “102 (GLYPVTLVGV; listed as Homo sapiens) [compound 102]”: the “Wells positive [%]” value is on record as “+ (<20% = +)”. As for “121 (ALYVQAPTV; listed as Homo sapiens) [compound 121]”, the “Wells positive [%]” value is recorded as “+ (<20% = +)”. Same read-out and setting: the same measure for “157 (ILQDGQFLV; listed as Homo sapiens) [compound 157]”: “+ (<20% = +)”; for “233 (SLFESLEYL; listed as Homo sapiens) [compound 233]”: “+ (<20% = +)”. The same measure, in the same setting: the result for “236 (KMSELQTYV; listed as Homo sapiens) [compound 236]” reads “+ (<20% = +)”; that for “242 (KLQEEIPVL; listed as Homo sapiens) [compound 242]”, “+ (<20% = +)”. Consider “246 (ALAGIVTNV; listed as Homo sapiens) [compound 246]”, for which the “Wells positive [%]” value is given as “+ (<20% = +)”. The same measure, in the same setting: the same measure for “254 (ALGDKFLLRV; listed as Homo sapiens) [compound 254]”: “+ (<20% = +)”; for “255 (FLMKNSDLYGA; listed as Homo sapiens) [compound 255]”: “+ (<20% = +)”.

For the substance “257 (KLIDHQGLYL; listed as Homo sapiens) [compound 257]”, the “Wells positive [%]” value is reported as “+ (<20% = +)”. Still for that read-out and setting: the same measure for “260 (ALNESLVEC; listed as Homo sapiens) [compound 260]”: “+ (<20% = +)”.

“263 (SIIEYLPTL; listed as Homo sapiens) [compound 263]”: the “Wells positive [%]” value is “+ (<20% = +)”. “264 (TLHDQVHLL; listed as Homo sapiens) [compound 264]”: the “Wells positive [%]” value is on record as “+ (<20% = +)”. With “267 (YLLDMPLWYL; listed as Homo sapiens) [compound 267]”, the “Wells positive [%]” value was “+ (<20% = +)”.
